Measured values taken from patent publication US10253081B2, “Glucagon analogues” (Zealand Pharma A/S, priority 2012, dated 2019).
*1 amine or outer side, *2 acyl side, *3 side chain or, on linkers, in order; H or OH if unused. Where a SMILES comes first, the peptide text is derived from it. Side-chain parts run from the residue outwards. [ ]: non-standard residue; d: D form. The star is where a group is joined. γGlu = O=C(O)[C@H](CCC(=O)[*:2])N[*:1]; Palmitoyl = CCCCCCCCCCCCCCCC(=O)*; Aib = CC(C)(N)C(=O)O

Columns and labels:
Type in all cases: cell-based
[1] = biological target: T1, endogenous glucagon receptor (Rattus norvegicus, UniProt P30082); assay: Agonistic activity on endogenous glucagon receptor (glycogen synthesis rate in primary rat hepatocytes); details: inhibition of glycogen synthesis rate, 3 hours, read-out: EC50 GLP-1R Rat hepat.
T1 construct: Agonistic activity of the test compounds on endogenous glucagon receptor; endogenous in cells; host or cells: primary rat hepatocytes
T1 sequence (P30082 27-485): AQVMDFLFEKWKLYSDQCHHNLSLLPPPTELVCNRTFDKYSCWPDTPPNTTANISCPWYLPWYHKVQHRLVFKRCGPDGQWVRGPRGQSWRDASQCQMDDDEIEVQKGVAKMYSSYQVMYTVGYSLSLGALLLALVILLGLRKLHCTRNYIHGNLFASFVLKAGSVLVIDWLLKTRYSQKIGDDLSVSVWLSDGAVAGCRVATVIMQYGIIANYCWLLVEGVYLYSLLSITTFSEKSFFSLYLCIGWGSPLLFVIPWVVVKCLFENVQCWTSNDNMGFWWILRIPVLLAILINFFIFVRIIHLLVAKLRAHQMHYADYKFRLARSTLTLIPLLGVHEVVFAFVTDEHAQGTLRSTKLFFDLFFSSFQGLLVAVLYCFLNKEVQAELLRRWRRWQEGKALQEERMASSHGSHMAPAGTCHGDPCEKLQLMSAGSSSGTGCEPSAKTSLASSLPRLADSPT
Protocol: Agonistic activity of the test compounds on endogenous glucagon receptor was determined by measuring their effect on rate of glycogen synthesis in primary rat hepatocytes. Upon activation of the glucagon receptor, an inhibition of the glycogen synthesis rate is expected. Rate of glycogen synthesis was determined by counting the amount of radioactively labeled glucose incorporated into the cellular glycogen stores in a defined period of time.
Primary rat hepatocytes were cultured at a density of 40,000 cells/well in a 24-well plate for 24 hours at 37° C. and 5% CO2.
Medium was discarded and the cells washed with PBS. 180 μL of KRBH-based buffer containing 0.1% BSA and glucose at a concentration of 22.5 mM was then added to the wells, followed by test compound and 40 μCi/ml D-[U14C] glucose (20 μL each). Incubation was continued for 3 hours.
At the end of the incubation period, the incubation buffer was aspirated and cells washed once with ice-cold PBS before lysis by incubation for 30 min at room temperature with 100 μL 1 mol/l NaOH.
Cell lysates were transferred to 96-well filter plates and glycogen precipitated by incubating the filter-plates for 120 min at 4° C. followed by washing the filter plates 4 times with ice-cold ethanol (70%). The resulting precipitates were filtered to dryness and the amount of incorporated ^14C-glucose determined by using a Topcount scintillation counter according to manufacturer's recommendations.
Wells with vehicle controls (0.1% (v/v) DMSO in KRBH buffer) were included as reference for non-inhibited glycogen synthesis (100% CTL). Wells without added D-[U^14C] glucose were included as controls for non-specific background signal (subtracted from all values). Endogenous glucagon peptide was used as a positive control.
All treatments were performed at least in triplicates.
Parameters calculated to describe the both the potency as well as the agonistic activity of each test compound on the endogenous glucagon receptor are pEC50 and % CTL. % CTL is determined by calculating the percentage of CPM/well in the presence of the test compound compared to the CPM/well of the vehicle control after subtracting the background CPM/well: [CPM/well(basal)−CPM/well(sample)]*100/[CPM/well(basal)−CPM/well(control)]
An activator of the glucagon receptor will result in an inhibition of the glycogen synthesis rate and will give % CTL values between 0% CTL (complete inhibition) and 100% CTL (no observable inhibition).
The resulting activity curves were plotted as absolute counts (unit: cpm/sample) over log (test compound concentration) and analyzed using the curve fitting program XLfit.
pEC50 (negative logarithmic value of EC50) reflects the potency of the test compound.
The terms EC50 and pEC50 quoted in relation to GLP-1R activation could equally be regarded as IC50 and pIC50 in relation to glycogen synthesis.

[2] = biological target: T2, human glucagon-like peptide 1 receptor (GLP-1R) (Homo sapiens, UniProt P43220); assay: GLP-1 receptor efficacy assay (cAMP AlphaScreen, CHO cells); details: Table 1B; for Ratio GLP-1/Glucagon: EC50 [GLP-1R]/EC50 [Glucagon-R]; for EC50: same protocol, different laboratory, read-out: EC50 hGLP-1R CHO-K1
T2 construct: expressed in transfected cells
T2 sequence (P43220 24-463): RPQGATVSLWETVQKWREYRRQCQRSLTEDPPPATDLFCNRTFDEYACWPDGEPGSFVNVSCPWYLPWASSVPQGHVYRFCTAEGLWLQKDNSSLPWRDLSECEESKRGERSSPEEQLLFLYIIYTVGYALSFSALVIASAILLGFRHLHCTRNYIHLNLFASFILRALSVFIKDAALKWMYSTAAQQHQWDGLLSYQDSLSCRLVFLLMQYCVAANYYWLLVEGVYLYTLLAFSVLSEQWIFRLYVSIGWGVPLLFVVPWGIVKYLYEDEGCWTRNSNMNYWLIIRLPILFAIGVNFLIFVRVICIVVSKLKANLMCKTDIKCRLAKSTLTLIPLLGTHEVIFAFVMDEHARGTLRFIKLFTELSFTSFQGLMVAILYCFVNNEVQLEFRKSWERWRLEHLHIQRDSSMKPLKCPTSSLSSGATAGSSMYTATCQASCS
Text: (§1) The cDNA encoding either the human glucagon receptor (Glucagon-R) (primary accession number P47871) or the human glucagon-like peptide 1 receptor (GLP-1R) (primary accession number P43220) were synthesized and cloned into a mammalian expression vector containing a Zeocin resistance marker.
(§2) The mammalian expression vectors encoding the Glucagon-R or the GLP-1-R were transfected into Chinese hamster ovary (CHO) cells by the Attractene method method. Stably expressing clones were obtained by Zeocin selection (250 μg/mL) upon limited dilution of cells resistant to the selection pressure. Glucagon-R and GLP-1-R cell clones expressing were picked, propagated and tested in the Glucagon-R and GLP-1-R efficacy assays as described below. One Glucagon-R expressing clone and one GLP-1-R expressing clone were chosen for compound profiling.
(§3) CHO cells expressing the human Glucagon-R, or human GLP-1-R were seeded 24 hours prior to the assay at 30,000 cells per well in 96-well microtiter plates in culture in 100 μl growth medium. On the day of analysis, growth medium was removed and the cells were washed once with 200 μl of assay buffer (Krebs-Ringer-buffer—KRBH). The buffer was removed and the cells were incubated for 15 min at room temperature in 10 μl KRBH (KRBH+10 mM HEPES, 5 mM NaHCO3, 0.1% (V/V) BSA) with 0.1 mM IBMX in deionized water containing increasing concentrations of test peptides. The reaction was stopped by the addition of lysis buffer (0.1% w/v BSA, 5 mM HEPES, 0.3% v/v Tween-20). After cell lysis for 10 min at room temperature, lysates were transferred to 384-well plates and 10 μl of acceptor/donorbead mixture as contained in the AlphaScreen™ cAMP Functional Assay Kit was added. After one hour of incubation at room temperature in the dark, the cAMP content was determined applying the AlphaScreen™ cAMP Functional Assay Kit from Perkin-Elmer according to manufacturer instructions. EC50 and relative efficacies compared to reference compounds (glucagon and GLP-1) were calculated applying computer aided curve fitting. The GLP-1/glucagon ratio is calculated as defined earlier.

[3] = biological target: T3, endogenous GLP-1 receptors (Mus musculus, UniProt O35659); assay: Agonistic activity on endogenous GLP-1 receptor (cAMP, murine insulinoma cell line); details: intracellular cAMP, 15 minutes at 26° C.; read-out: EC50 GLP-1R (murine insulinoma cells)
T3 construct: Agonistic activity of the test compounds on endogenous GLP-1 receptors; endogenous in cells
T3 sequence (O35659 22-463): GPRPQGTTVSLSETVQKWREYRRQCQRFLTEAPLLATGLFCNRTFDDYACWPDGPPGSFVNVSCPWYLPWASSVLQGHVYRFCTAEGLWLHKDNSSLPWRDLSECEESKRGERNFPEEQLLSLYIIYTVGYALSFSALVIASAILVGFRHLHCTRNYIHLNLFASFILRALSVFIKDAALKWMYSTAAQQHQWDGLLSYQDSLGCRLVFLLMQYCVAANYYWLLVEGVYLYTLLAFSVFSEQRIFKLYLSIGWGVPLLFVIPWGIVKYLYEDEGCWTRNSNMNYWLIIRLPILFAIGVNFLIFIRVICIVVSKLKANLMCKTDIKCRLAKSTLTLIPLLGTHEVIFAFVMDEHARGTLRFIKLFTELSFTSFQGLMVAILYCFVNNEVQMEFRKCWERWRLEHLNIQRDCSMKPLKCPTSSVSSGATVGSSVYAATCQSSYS
Protocol: Agonistic activity of the test compounds on endogenous GLP-1 receptors was determined using a murine insulinoma cell line. Intracellular cAMP was used an indicator of receptor activation.
Cells were cultured for 24 h at a density of 10,000 cells/well in a 384-well plate. Medium was removed and 10 μL KRBH buffer (NaCl 130 mM, KCl 3.6 mM, NaH2PO4 0.5 mM, MgSO4 0.5 mM, CaCl2) 1.5 mM) containing test compound or GLP-1 (at increasing concentrations from […] to 100 nM) or solvent control (0.1% (v/v) DMSO) was added to the wells for 15 minutes at a temperature of 26° C.
The cellular cAMP content is measured using the AlphaScreen cAMP Functional Assay Kit (Perkin Elmer). Measurement was performed using the Envision (PerkinElmer) according to manufacturer's recommendations.
All measurements were performed in quadruplicate.
Results were converted into cAMP concentrations using a cAMP standard curve prepared in KRBH buffer containing 0.1% (v/v) DMSO. The resulting cAMP curves were plotted as absolute cAMP concentrations (nM) over log (test compound concentration) and analyzed using the curve fitting program XLfit.
Parameters calculated to describe the both the potency as well as the agonistic activity of each test compound on the endogenous GLP-1 receptors were:
pEC50 (negative logarithmic value of EC50, a concentration resulting in a half-maximal elevation of cAMP levels, reflecting the potency of the test compound);
Percent control (% CTL)(% cAMP elevation for each test compound concentration normalized based on the GLP-1-induced maximum cAMP response (100% CTL)).

[4] = biological target: T4, human glucagon receptor (Glucagon-R) (Homo sapiens, UniProt P47871); assay: Glucagon receptor efficacy assay (cAMP AlphaScreen, CHO cells); details: Table 1B; same protocol, different laboratory; read-out: EC50 hGCGR CHO-K1
T4 construct: expressed in transfected cells
T4 sequence (P47871 26-477): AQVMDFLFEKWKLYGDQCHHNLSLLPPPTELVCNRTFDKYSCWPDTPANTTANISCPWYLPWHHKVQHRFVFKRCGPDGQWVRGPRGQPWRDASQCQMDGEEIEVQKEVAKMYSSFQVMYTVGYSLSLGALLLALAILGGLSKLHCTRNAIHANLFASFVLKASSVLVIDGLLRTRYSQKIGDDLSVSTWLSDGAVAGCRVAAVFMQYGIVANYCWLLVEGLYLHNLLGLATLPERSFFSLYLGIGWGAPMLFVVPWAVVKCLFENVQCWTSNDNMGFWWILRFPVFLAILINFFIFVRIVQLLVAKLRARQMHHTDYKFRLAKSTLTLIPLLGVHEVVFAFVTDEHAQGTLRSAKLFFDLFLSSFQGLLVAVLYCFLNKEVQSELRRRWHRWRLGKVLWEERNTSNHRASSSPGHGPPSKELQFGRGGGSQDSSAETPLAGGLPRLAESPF
Text: as §1, §2, §3

**Q.** With `CCCCCCCCCCCCCCCC(=O)N[C@@H](CCC(=O)NCCCC[C@H](NC(=O)[C@H](CCC(=O)O)NC(=O)[C@H](CCC(=O)O)NC(=O)[C@H](CC(C)C)NC(=O)[C@H](Cc1ccc(O)cc1)NC(=O)[C@H](CCCCN)NC(=O)[C@H](CO)NC(=O)[C@H](Cc1ccc(O)cc1)NC(=O)[C@H](CC(=O)O)NC(=O)[C@H](CO)NC(=O)[C@@H](NC(=O)[C@H](Cc1ccccc1)NC(=O)[C@@H](NC(=O)CNC(=O)[C@H](CCC(N)=O)NC(=O)C(C)(C)NC(=O)[C@@H](N)Cc1c[nH]cn1)[C@@H](C)O)[C@@H](C)O)C(=O)N[C@@H](C)C(=O)N[C@@H](C)C(=O)N[C@@H](CCCCN)C(=O)N[C@@H](CC(=O)O)C(=O)N[C@@H](Cc1ccccc1)C(=O)N[C@H](C(=O)N[C@@H](CCC(=O)O)C(=O)N[C@@H](Cc1c[nH]c2ccccc12)C(=O)N[C@@H](CC(C)C)C(=O)N[C@@H](CCC(=O)O)C(=O)N[C@@H](CO)C(=O)N[C@@H](C)C(N)=O)[C@@H](C)CC)C(=O)O` [Compound 20, H-H-Aib-QGTFTSDYSKYLEE-K(Hexadecanoyl-isoGlu)-AAKDFIEWLESA-NH2] (H-H[Aib]QGTFTSDYSKYLEEK([γGlu-Palmitoyl])AAKDFIEWLESA-NH2) as the compound, how does the EC50 [1] read?
**A.** 0.39 nM

**Q.** What about the “Ratio GLP-1/Glucagon” value [2] of the same compound?
**A.** 0.34

**Q.** And the EC50 [2]?
**A.** 0.23 nM

**Q.** And the EC50 [3]?
**A.** 0.27 nM

**Q.** What about the EC50 [4] of the same compound?
**A.** 0.68 nM

**Q.** How did the EC50 [1] turn out when `CCCCCCCCCCCCCCCC(=O)N[C@@H](CCC(=O)NCCCC[C@H](NC(=O)[C@H](CO)NC(=O)[C@H](CCC(=O)O)NC(=O)[C@H](CC(C)C)NC(=O)[C@H](Cc1ccc(O)cc1)NC(=O)[C@H](CCCCN)NC(=O)[C@H](CO)NC(=O)[C@H](Cc1ccc(O)cc1)NC(=O)[C@H](CC(=O)O)NC(=O)[C@H](CO)NC(=O)[C@@H](NC(=O)[C@H](Cc1ccccc1)NC(=O)[C@@H](NC(=O)CNC(=O)[C@H](CCC(N)=O)NC(=O)C(C)(C)NC(=O)[C@@H](N)Cc1c[nH]cn1)[C@@H](C)O)[C@@H](C)O)C(=O)N[C@@H](C)C(=O)N[C@@H](C)C(=O)N[C@@H](CCC(=O)O)C(=O)N[C@@H](CC(=O)O)C(=O)N[C@@H](Cc1ccccc1)C(=O)N[C@H](C(=O)N[C@@H](CCC(=O)O)C(=O)N[C@@H](Cc1c[nH]c2ccccc12)C(=O)N[C@@H](CC(C)C)C(=O)N[C@@H](CCC(=O)O)C(=O)N[C@@H](CO)C(=O)N[C@@H](C)C(N)=O)[C@@H](C)CC)C(=O)O` [Compound 21, H-H-Aib-QGTFTSDYSKYLES-K(Hexadecanoyl-isoGlu)-AAEDFIEWLESA-NH2] (H-H[Aib]QGTFTSDYSKYLESK([γGlu-Palmitoyl])AAEDFIEWLESA-NH2) was run?
**A.** 3.4 nM

**Q.** What about the “Ratio GLP-1/Glucagon” value [2] of the same compound?
**A.** 0.09

**Q.** What about the EC50 [2] of the same compound?
**A.** 0.12 nM

**Q.** And the EC50 [3]?
**A.** 0.3 nM

**Q.** And the EC50 [4]?
**A.** 1.32 nM

**Q.** `CCCCCCCCCCCCCCCC(=O)N[C@@H](CCC(=O)NCCCC[C@H](NC(=O)[C@H](CCC(=O)O)NC(=O)[C@H](CCC(=O)O)NC(=O)[C@H](CC(C)C)NC(=O)[C@H](Cc1ccc(O)cc1)NC(=O)[C@H](CCCCN)NC(=O)[C@H](CO)NC(=O)[C@H](Cc1ccc(O)cc1)NC(=O)[C@H](CC(=O)O)NC(=O)[C@H](CO)NC(=O)[C@@H](NC(=O)[C@H](Cc1ccccc1)NC(=O)[C@@H](NC(=O)CNC(=O)[C@H](CCC(N)=O)NC(=O)[C@H](CO)NC(=O)[C@@H](N)Cc1c[nH]cn1)[C@@H](C)O)[C@@H](C)O)C(=O)N[C@@H](C)C(=O)N[C@@H](C)C(=O)N[C@@H](CCCCN)C(=O)N[C@@H](CC(=O)O)C(=O)N[C@@H](Cc1ccccc1)C(=O)N[C@H](C(=O)N[C@@H](CCC(=O)O)C(=O)N[C@@H](Cc1c[nH]c2ccccc12)C(=O)N[C@@H](CC(C)C)C(=O)N[C@@H](CCC(=O)O)C(=O)N[C@@H](CO)C(=O)N[C@@H](C)C(N)=O)[C@@H](C)CC)C(=O)O` [Compound 22, H-HSQGTFTSDYSKYLEE-K(Hexadecanoyl-isoGlu)-AAKDFIEWLESA-NH2] (H-HSQGTFTSDYSKYLEEK([γGlu-Palmitoyl])AAKDFIEWLESA-NH2) was tested. Which EC50 [1] did it give?
**A.** 0.28 nM

**Q.** What about the “Ratio GLP-1/Glucagon” value [2] of the same compound?
**A.** 2.40

**Q.** What about the EC50 [2] of the same compound?
**A.** 0.24 nM

**Q.** What about the EC50 [3] of the same compound?
**A.** 0.35 nM

**Q.** What about the EC50 [4] of the same compound?
**A.** 0.1 nM
